Data published in PMC8092228 (mBio, 2021).

How the values were obtained:
[1] = biological target: T1, LOV-PAS-HK (full-length LOV-HK) (Brucella abortus, UniProt Q2YKK7)
T1 construct: gene BAB2_0652

LOV-PAS = biological target: T2, LOV-PAS (Brucella abortus, UniProt Q2YKK7)
T2 construct: gene BAB2_0652
T2 sequence (Q2YKK7 15-273 limits assumed): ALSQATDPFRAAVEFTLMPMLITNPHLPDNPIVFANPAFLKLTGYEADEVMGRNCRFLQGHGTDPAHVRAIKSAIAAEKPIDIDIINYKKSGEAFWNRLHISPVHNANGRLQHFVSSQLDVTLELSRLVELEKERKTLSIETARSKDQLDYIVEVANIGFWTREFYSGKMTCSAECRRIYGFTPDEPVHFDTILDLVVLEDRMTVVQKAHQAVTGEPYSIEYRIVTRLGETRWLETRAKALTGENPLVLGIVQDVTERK

T1 sequence (Q2YKK7 15-489 limits assumed): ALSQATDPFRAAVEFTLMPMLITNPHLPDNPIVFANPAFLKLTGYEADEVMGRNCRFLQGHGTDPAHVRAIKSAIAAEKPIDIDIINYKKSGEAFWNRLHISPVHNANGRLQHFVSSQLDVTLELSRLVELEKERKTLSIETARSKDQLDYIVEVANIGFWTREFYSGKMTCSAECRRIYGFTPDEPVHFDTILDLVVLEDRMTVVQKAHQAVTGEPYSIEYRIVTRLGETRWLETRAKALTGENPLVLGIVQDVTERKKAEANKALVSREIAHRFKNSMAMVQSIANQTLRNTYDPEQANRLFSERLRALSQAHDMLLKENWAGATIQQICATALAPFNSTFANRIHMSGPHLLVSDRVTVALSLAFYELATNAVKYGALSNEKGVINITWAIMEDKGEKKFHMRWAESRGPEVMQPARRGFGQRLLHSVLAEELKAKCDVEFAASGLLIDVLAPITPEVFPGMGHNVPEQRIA

## Cc1cc2nc3c(=O)[nH]c(=O)nc-3n(C[C@H](O)[C@H](O)[C@H](O)COP(=O)(O)O)c2cc1C [FMN]
[1]
  X-ray crystal structure 3.25 A: the electron densities associated with the FMN chromophores are fused into the protein moiety
LOV-PAS
  X-ray crystal structure, 2.74 A (dark), 2.80 A (light): the FMN ligand is clearly separated from the protein moiety in the electron density map
